Values belong to the compound of their own block, whether it stands above or below them.
What was measured:
[1] = system: poly(dA)•2poly(dT) (DNA, polymer) A/T; assay: UV melting, 260 nm; settings: pH 7.0; for ΔTm3→2 / binding: 150 mM KCl, 10 mM sodium cacodylate; for ΔTm3→2: per base
[2] = system: DNA1/DNA2/TFO1 triplex (DNA, triplex) ATGGCAAAAAAAAGGAGAAGCTGACCACCTGACTA/TAGTCAGGTGGTCAGCTTCTCCTTTTTTTTGCCAT/CTTTCTTTTTTTTTCCTCTTC; assay: native PAGE gel shift; settings: none added; 90 mM Tris–acetate, pH 5.0; 1 to 100 μM compound; triplex formation promoted
[3] = system: DNA3 (DNA, triplex) GAAAAAAAAAAAAAGTTTTCTTTTTTTTTTTTCTTTTCTTTTTTTTTTTTTC; assay: ITC; settings: 100 mM NaCl, 10 mM sodium cacodylate, pH 7.0, 15 °C; for Kd: independent model
[4] = system: poly(dA)•2poly(dT) (DNA, polymer) A/T; assay: viscosity; settings: 150 mM KCl; 10 mM sodium cacodylate, pH 7.0, room temperature; intercalation
[5] = system: DNA4 (DNA, hairpin) GAAAAAAAAAAAAAGTTTTCTTTTTTTTTTTTTC; assay: ITC; settings: 100 mM NaCl; 10 mM sodium cacodylate, pH 7.0, 15 °C; 100 μM ligand titrant; heat of dilution only
[6] = system: DNA4 (DNA, hairpin) GAAAAAAAAAAAAAGTTTTCTTTTTTTTTTTTTC; assay: CD titration; settings: 100 mM NaCl; 10 mM sodium cacodylate, pH 7.0, 15 °C; 0 to 50 μM compound
[7] = system: poly(dA)•poly(dT) (DNA, polymer) A/T; assay: UV melting; settings: 150 mM KCl; 10 mM sodium cacodylate, pH 7.0; 10 μM compound; Tm2→1 stays near 72 °C
[8] = system: DNA3 (DNA, triplex) GAAAAAAAAAAAAAGTTTTCTTTTTTTTTTTTCTTTTCTTTTTTTTTTTTTC; assay: CD titration; settings: 100 mM NaCl; 10 mM sodium cacodylate, pH 7.0, 15 °C; 0 to 50 μM compound
[9] = 10 μM compound, 15 μM base triplet
[10] = 10 mM lithium cacodylate, no added salt, 10 μM compound, Tm not shift, no triplex without ligand, duplex Tm 58 °C

Structure (SMILES): CN1CCN(CCCOc2cccc3oc(-c4ccccc4)cc(=O)c23)CC1
ΔTm3→2 [1, 9]: 25.7 °C

Structure (SMILES): O=c1cc(-c2ccccc2)oc2cccc(OCCCN3CCCCC3)c12
binding [2]: yes | Kd [3]: 1.01 ± 0.20 × 10^-5 M | binding [4]: yes | binding [5]: no | binding [6]: no | Tm3→1 [1, 10]: 60.7 °C | binding [7]: no | binding [8]: yes

Structure (SMILES): O=c1cc(-c2ccccc2)oc2cccc(OCCCN3CCOCC3)c12
ΔTm3→2 [1, 9]: 26.7 °C

Structure (SMILES): O=c1cc(-c2ccccc2)oc2cccc(OCCCO)c12
ΔTm3→2 [1, 9]: 5.4 °C

Structure (SMILES): O=c1cc(-c2ccccc2)oc2cccc(OCCN3CCCCC3)c12
Kd [3]: 2.10 ± 1.12 × 10^-5 M | Tm3→2 [1, 10]: 55 °C | ΔTm3→2 [1, 9]: 22.6 °C

Structure (SMILES): NC[C@@H]1O[C@H](O[C@H]2[C@@H](O)[C@H](O[C@@H]3[C@@H](O)[C@H](N)C[C@H](N)[C@H]3O[C@H]3O[C@H](CN)[C@@H](O)[C@H](O)[C@H]3N)O[C@@H]2CO)[C@H](N)[C@@H](O)[C@@H]1O
binding ([1]; 0 to 20 μM compound, no effect at 0.5 μM): yes

Structure (SMILES): O=c1cc(-c2ccccc2)oc2cccc(OCCCCN3CCCCC3)c12
Kd [3]: 3.08 ± 1.26 × 10^-5 M | Tm3→2 [1, 10]: 40 °C | ΔTm3→2 [1, 9]: 12.1 °C

Structure (SMILES): CCCN(CCC)CCCOc1cccc2oc(-c3ccccc3)cc(=O)c12
ΔTm3→2 [1, 9]: 23.8 °C

Structure (SMILES): NCCCOc1cccc2oc(-c3ccccc3)cc(=O)c12
ΔTm3→2 [1, 9]: 23.2 °C

Now from value to compound:

ΔTm3→2 [1, 9]: 24.4 °C
Structure (SMILES): CCN(CC)CCCOc1cccc2oc(-c3ccccc3)cc(=O)c12

binding [1, 9]: no
Structure (SMILES): CC(C)CCCOc1cccc2oc(-c3ccccc3)cc(=O)c12

binding ([3]; 100 μM ligand titrant, heat of dilution only): no | binding [1, 9]: weak
Structure (SMILES): O=c1cc(-c2ccccc2)oc2cccc(O)c12

ΔTm3→2 [1, 9]: 19.4 °C
Structure (SMILES): O=c1cc(-c2ccccc2)oc2cccc(OCCCN3CCCC3)c12

From PMC11678237 (2024)
